Laboratory results: patent US20240092784A1, “CONDENSED HETEROCYCLIC COMPOUND” (NISSAN CHEMICAL CORPORATION, priority 2020, published 2024)

target: human SPR (Homo sapiens (Human), UniProt P35270); assay: Evaluation Example 2: Measurement of human SPR inhibitory activity (seven concentrations, sepiapterin absorbance at 420 nm); format: biochemical; conditions: Evaluation Example 2, seven concentrations 0.14 nM to 100 nM, 240 minutes at room temperature, read-out: IC50
Procedure, shortened: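 Reactions ran 240 min at room temperature in 100 mM Tris-HCl pH 7.5 with 0.01% BSA. They contained tag-cleaved, E. coli-expressed full-length human SPR (diluted to 150 ng/mL), seven compound concentrations from 0.14 to 100 nM, and sepiapterin/NADPH added as a 120 μM/160 μM solution. Inhibition was calculated from sepiapterin absorbance at 420 nm.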

Chain of human SPR (P35270 whole entry): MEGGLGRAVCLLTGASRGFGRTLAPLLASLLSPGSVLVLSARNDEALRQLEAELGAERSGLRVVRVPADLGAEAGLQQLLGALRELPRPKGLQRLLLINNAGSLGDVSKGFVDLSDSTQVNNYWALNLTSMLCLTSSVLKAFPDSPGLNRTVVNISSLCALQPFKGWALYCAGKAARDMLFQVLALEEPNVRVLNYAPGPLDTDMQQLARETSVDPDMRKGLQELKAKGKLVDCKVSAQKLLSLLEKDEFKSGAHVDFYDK

| Compound | IC50 |
| --- | --- |
| Cc1nn2c(O)c(C(=O)NC3CC3)c(=O)n(CC(C)C)c2c1/C=C/C(=O)N1CCOC(C)(C)C1 [Synthesis Example 657, (E)-N-Cyclopropyl-3-(3-(2,2-dimethylmorpholino)-3-oxoprop-1-en-1-yl)-7-hydroxy-4-isobutyl-2-methyl-5-oxo-4,5-dihydropyrazolo[1,5-a]pyrimidine-6-carboxamide] | 0.92 nM |
| Cc1nn2c(O)c(C(=O)NC3CC3)c(=O)n(CC(C)C)c2c1/C=C/C(=O)N1C2CCC1COC2 [Synthesis Example 658, (E)-3-(3-(3-Oxa-8-azabicyclo[3.2.1]octan-8-yl)-3-oxoprop-1-en-1-yl)-N-cyclopropyl-7-hydroxy-4-isobutyl-2-methyl-5-oxo-4,5-dihydropyrazolo[1,5-a]pyrimidine-6-carboxamide] | 0.78 nM |
| CC[C@H]1COCCN1C(=O)/C=C/c1c(C)nn2c(O)c(C(=O)NC3CC3)c(=O)n(CC(C)C)c12 [Synthesis Example 659, (S,E)-N-Cyclopropyl-3-(3-(3-ethylmorpholino)-3-oxoprop-1-en-1-yl)-7-hydroxy-4-isobutyl-2-methyl-5-oxo-4,5-dihydropyrazolo[1,5-a]pyrimidine-6-carboxamide] | 0.83 nM |
| Cc1nn2c(O)c(C(=O)NC3CC3)c(=O)n(CC(C)C)c2c1/C=C/C(=O)N1CCCC12CCCN(C(=O)OC(C)(C)C)C2 (centres unmarked) [Synthesis Example 660, Tert-butyl (E)-1-(3-(6-(cyclopropylcarbamoyl)-7-hydroxy-4-isobutyl-2-methyl-5-oxo-4,5-dihydropyrazolo[1,5-a]pyrimidin-3-yl)acryloyl)-1,7-diazaspiro[4.5]decane-7-carboxylate] | 3.97 nM |
| Cc1nn2c(O)c(C(=O)NC3CC3)c(=O)n(CC(C)C)c2c1/C=C/C(=O)N1CCCC12CCN(C(=O)OC(C)(C)C)CC2 [Synthesis Example 661, Tert-butyl (E)-1-(3-(6-(cyclopropylcarbamoyl)-7-hydroxy-4-isobutyl-2-methyl-5-oxo-4,5-dihydropyrazolo[1,5-a]pyrimidin-3-yl)acryloyl)-1,8-diazaspiro[4.5]decane-8-carboxylate] | 2.48 nM |
| Cc1nn2c(O)c(C(=O)NC3CC3)c(=O)n(CC(C)C)c2c1/C=C/C(=O)N1CCCC12CCCN(C)C2 (centres unmarked) [Synthesis Example 662, (E)-N-Cyclopropyl-7-hydroxy-4-isobutyl-2-methyl-3-(3-(7-methyl-1,7-diazaspiro[4.5]decan-1-yl)-3-oxoprop-1-en-1-yl)-5-oxo-4,5-dihydropyrazolo[1,5-a]pyrimidine-6-carboxamide] | 1.08 nM |
| CC(=O)N1CCCC2(CCCN2C(=O)/C=C/c2c(C)nn3c(O)c(C(=O)NC4CC4)c(=O)n(CC(C)C)c23)C1 (centres unmarked) [Synthesis Example 663, (E)-3-(3-(7-Acetyl-1,7-diazaspiro[4.5]decan-1-yl)-3-oxoprop-1-en-1-yl)-N-cyclopropyl-7-hydroxy-4-isobutyl-2-methyl-5-oxo-4,5-dihydropyrazolo[1,5-a]pyrimidine-6-carboxamide] | 1.41 nM |
| Cc1nn2c(O)c(C(=O)NC3CC3)c(=O)n(CC(C)C)c2c1/C=C/C(=O)N1CCCC12CCN(C)CC2 [Synthesis Example 664, (E)-N-Cyclopropyl-7-hydroxy-4-isobutyl-2-methyl-3-(3-(8-methyl-1,8-diazaspiro[4.5]decan-1-yl)-3-oxoprop-1-en-1-yl)-5-oxo-4,5-dihydropyrazolo[1,5-a]pyrimidine-6-carboxamide] | 0.77 nM |
| CC(=O)N1CCC2(CCCN2C(=O)/C=C/c2c(C)nn3c(O)c(C(=O)NC4CC4)c(=O)n(CC(C)C)c23)CC1 [Synthesis Example 665, (E)-3-(3-(8-Acetyl-1,8-diazaspiro[4.5]decan-1-yl)-3-oxoprop-1-en-1-yl)-N-cyclopropyl-7-hydroxy-4-isobutyl-2-methyl-5-oxo-4,5-dihydropyrazolo[1,5-a]pyrimidine-6-carboxamide] | 0.92 nM |
| Cc1nn2c(O)c(C(=O)NC3CC3)c(=O)n(CC(C)C)c2c1/C=C/C(=O)N1CCCC12CCN(CC(F)(F)F)CC2 [Synthesis Example 666, (E)-N-Cyclopropyl-7-hydroxy-4-isobutyl-2-methyl-5-oxo-3-(3-oxo-3-(8-(2,2,2-trifluoroethyl)-1,8-diazaspiro[4.5]decan-1-yl)prop-1-en-1-yl)-4,5-dihydropyrazolo[1,5-a]pyrimidine-6-carboxamide] | 2.14 nM |
| CCN1CCC2(CCCN2C(=O)/C=C/c2c(C)nn3c(O)c(C(=O)NC4CC4)c(=O)n(CC(C)C)c23)CC1 [Synthesis Example 667, (E)-N-Cyclopropyl-3-(3-(8-ethyl-1,8-diazaspiro[4.5]decan-1-yl)-3-oxoprop-1-en-1-yl)-7-hydroxy-4-isobutyl-2-methyl-5-oxo-4,5-dihydropyrazolo[1,5-a]pyrimidine-6-carboxamide] | 0.94 nM |
| Cc1nn2c(O)c(C(=O)NC3CC3)c(=O)n(CC(C)C)c2c1/C=C/C(=O)N1CCc2cc(F)ccc21 [Synthesis Example 668, (E)-N-Cyclopropyl-3-(3-(5-fluoroindolin-1-yl)-3-oxoprop-1-en-1-yl)-7-hydroxy-4-isobutyl-2-methyl-5-oxo-4,5-dihydropyrazolo[1,5-a]pyrimidine-6-carboxamide] | 7.87 nM |
| Cc1nn2c(O)c(C(=O)NC3CC3)c(=O)n(CC(C)C)c2c1/C=C/C(=O)N1CCc2cc(C#N)ccc21 [Synthesis Example 669, (E)-3-(3-(5-Cyanoindolin-1-yl)-3-oxoprop-1-en-1-yl)-N-cyclopropyl-7-hydroxy-4-isobutyl-2-methyl-5-oxo-4,5-dihydropyrazolo[1,5-a]pyrimidine-6-carboxamide] | 1.84 nM |
| Cc1nn2c(O)c(C(=O)NC3CC3)c(=O)n(CC(C)C)c2c1/C=C/C(=O)N1CCc2cc(Br)ccc21 [Synthesis Example 670, (E)-3-(3-(5-Bromoindolin-1-yl)-3-oxoprop-1-en-1-yl)-N-cyclopropyl-7-hydroxy-4-isobutyl-2-methyl-5-oxo-4,5-dihydropyrazolo[1,5-a]pyrimidine-6-carboxamide] | 11.5 nM |
| Cc1nn2c(O)c(C(=O)NC3CC3)c(=O)n(CC(C)C)c2c1/C=C/C(=O)N1CCN(C2CC(F)(F)C2)C[C@@H]1C [Synthesis Example 671, (S,E)-N-Cyclopropyl-3-(3-(4-(3,3-difluorocyclobutyl)-2-methylpiperazin-1-yl)-3-oxoprop-1-en-1-yl)-7-hydroxy-4-isobutyl-2-methyl-5-oxo-4,5-dihydropyrazolo[1,5-a]pyrimidine-6-carboxamide] | 1.49 nM |
| Cc1nn2c(O)c(C(=O)NC3CC3)c(=O)n(CC(C)C)c2c1/C=C/C(=O)N1CCC(F)(F)CC1C (centres unmarked) [Synthesis Example 672, (E)-N-Cyclopropyl-3-(3-(4,4-difluoro-2-methylpiperidin-1-yl)-3-oxoprop-1-en-1-yl)-7-hydroxy-4-isobutyl-2-methyl-5-oxo-4,5-dihydropyrazolo[1,5-a]pyrimidine-6-carboxamide] | 0.86 nM |
| Cc1nn2c(O)c(C(=O)NC3CC3)c(=O)n(CC(C)C)c2c1/C=C/C(=O)N1CCC[C@@H]1c1ccccc1 [Synthesis Example 673, (R,E)-N-Cyclopropyl-7-hydroxy-4-isobutyl-2-methyl-5-oxo-3-(3-oxo-3-(2-phenylpyrrolidin-1-yl)prop-1-en-1-yl)-4,5-dihydropyrazolo[1,5-a]pyrimidine-6-carboxamide] | 1.35 nM |
| Cc1nn2c(O)c(C(=O)NC3CC3)c(=O)n(CC(C)C)c2c1/C=C/C(=O)N1CCC[C@H]1c1ccccc1 [Synthesis Example 674, (S,E)-N-Cyclopropyl-7-hydroxy-4-isobutyl-2-methyl-5-oxo-3-(3-oxo-3-(2-phenylpyrrolidin-1-yl)prop-1-en-1-yl)-4,5-dihydropyrazolo[1,5-a]pyrimidine-6-carboxamide] | 1.36 nM |
| Cc1nn2c(O)c(C(=O)NC3CC3)c(=O)n(CC(C)C)c2c1/C=C/C(=O)N1CCOc2cnccc21 [Synthesis Example 675, (E)-N-Cyclopropyl-3-(3-(2,3-dihydro-1H-pyrido[3,4-b][1,4]oxazin-1-yl)-3-oxoprop-1-en-1-yl)-7-hydroxy-4-isobutyl-2-methyl-5-oxo-4,5-dihydropyrazolo[1,5-a]pyrimidine-6-carboxamide] | 0.99 nM |
| Cc1nn2c(O)c(C(=O)NC3CC3)c(=O)n(CC(C)C)c2c1/C=C/C(=O)N1CCOc2ncccc21 [Synthesis Example 676, (E)-N-Cyclopropyl-3-(3-(2,3-dihydro-1H-pyrido[2,3-b][1,4]oxazin-1-yl)-3-oxoprop-1-en-1-yl)-7-hydroxy-4-isobutyl-2-methyl-5-oxo-4,5-dihydropyrazolo[1,5-a]pyrimidine-6-carboxamide] | 0.91 nM |
| Cc1nn2c(O)c(C(=O)NC3CC3)c(=O)n(CC(C)C)c2c1/C=C/C(=O)N1CCC[C@H]1C(C)(C)O [Synthesis Example 677, (S,E)-N-Cyclopropyl-7-hydroxy-3-(3-(2-(2-hydroxypropan-2-yl)pyrrolidin-1-yl)-3-oxoprop-1-en-1-yl)-4-isobutyl-2-methyl-5-oxo-4,5-dihydropyrazolo[1,5-a]pyrimidine-6-carboxamide] | 0.95 nM |
| Cc1nn2c(O)c(C(=O)NC3CC3)c(=O)n(CC(C)C)c2c1/C=C/C(=O)N1CCCC12CCN(C(C)C)CC2 [Synthesis Example 678, (E)-N-Cyclopropyl-7-hydroxy-4-isobutyl-3-(3-(8-isopropyl-1,8-diazaspiro[4.5]decan-1-yl)-3-oxoprop-1-en-1-yl)-2-methyl-5-oxo-4,5-dihydropyrazolo[1,5-a]pyrimidine-6-carboxamide] | 1.17 nM |
| Cc1nn2c(O)c(C(=O)NC3CC3)c(=O)n(CC(C)C)c2c1/C=C/C(=O)N1CCO[C@H](C)C1 [Synthesis Example 679, (R,E)-N-Cyclopropyl-7-hydroxy-4-isobutyl-2-methyl-3-(3-(2-methylmorpholino)-3-oxoprop-1-en-1-yl)-5-oxo-4,5-dihydropyrazolo[1,5-a]pyrimidine-6-carboxamide] | 0.94 nM |
